For data set [1], the system named is RBL-2H3 cells. The data set is described as follows: Inhibitory activity against allergic reaction using RBL-2H3 cells (PGD2 production). In kind it is cell-based, rat. The conditions noted are these: anti-DNP IgE / DNP-BSA, read-out: PGD2 production inhibitory concentration (IC50, (nM)). As to the method:
Rat basophilic leukemia cells, RBL-2H3, were suspended in MEM medium containing 10% FBS, and then the cells were inoculated in a culture plate, and cultured in a CO2 incubator (Sanyo Electric Biomedical Co., Ltd.) at 37° C. for 12 hours. After a culture supernatant was removed and the cells were washed, an anti-DNP-mouse IgE (Alpha Diagnostic Inc.) solution was added thereto, and the cells were cultured in the CO2 incubator for 1 hour. After a culture supernatant was removed and the cells were washed, an MEM medium was added thereto.
Further, a DNP-BSA (LSL, Inc.) solution was added thereto and the cells were cultured in the CO2 incubator for 15 minutes. A culture supernatant was collected and reacted, with PGD2-MOX EIA kit (Cayman Chemical Inc.) on the basis of the protocol attached thereto, and absorbance was measured by SUNRISE RAINBOW THERMO (TECAM Inc.).

In data set [2] the target is T1, phosphorylated BTK protein in Ramos cells (Homo sapiens, UniProt Q06187).
T1 construct: endogenous in cells; host or cells: Ramos cells
The data set is described as follows: Inhibitory activity against B-cell activation using Ramos cells (BTK phosphorylation). In kind it is cell-based. The following applies: anti-human IgM stimulation, pY223 Western blotting, read-out: Phosphorylated BTK inhibitory concentration (IC50, (nM)). As to the method:
The human B-cell lymphoma-derived cell line, Ramos cells were suspended in RPMI1640 medium, and then the cells were inoculated in a culture plate at a concentration of 2.0×10^6 (cells/well). The cells were cultured in a CO2 incubator (Sanyo Electric Biomedical Co., Ltd.) at 37° C. for 12 hours. […] Then, 10 minutes of stimulation was provided with Goat F(ab′)2 anti-human IgM antibody-UNLB (southern biotech Corp.). Thereafter, the cells were harvested, and 50 μL of (a cell extract (NP-40; Invitrogen, Inc.) containing 1×protease inhibitor (Hoffmann-La Roche AG) and 1×phosphatase cocktail inhibitor (Sigma-Aldrich Co.)) was added to the cell pellets. The cell pellets were left to stand for 10 minutes on ice. The amount of protein in the collected cell extract was quantitatively analyzed by a DC protein assay (Bio-Rad Laboratories, Inc.), and 20 μg of proteins per lane was applied to a Criterion TGX™ (Bio-Rad Laboratories, Inc.). After electrophoresis was performed, Western blotting was performed with Trans-Blot™ Turbo™ (Bio-Rad Laboratories, Inc.). Thereafter, phosphorylated BTK protein and BTK protein were detected with LAS4000 (GE Healthcare, Inc.) with a BTK phosphor (pY223) antibody (EPITOMICS Inc.) and a BTK antibody (Abcam, plc.).

A short description of data set [3]: Influence on body weight of SD rat by repeated administration. The following applies: for Relative body weight change ratio (%): 750 mg/kg orally once a day, two weeks. In kind it is in vivo. As to the method: The rats were grouped as follows, with four animals in each group, by a random classification method such that the average body weights of the respective groups would be almost uniform (Day 1).
The body weight change (BWC) was used as an index indicating the systemic toxicity caused by the compound administration. The BWC was calculated by the following formula. BWC (%)=([(Rat body weight on 14 days after the administration)−(Rat body weight at the time of grouping)]/(Rat body weight at the time of grouping))×100
The relative body weight change ratios in the each compound-administered groups were calculated by the following formula when the BWC in the vehicle-administered group was set as 1, and the results are indicated in Table 25. Relative body weight change ratio (%)=(BWC in the compound-administered group)/BWC in the vehicle-administered group)×100

In data set [4] the test system is TNP-IgE mice. Description: Mouse antigen-induced dermatitis model. The data set is classed as in vivo. The conditions noted are these: for Ear swelling control ratio (%): 30 minutes before allergen, 2 hours after antigen. The source says: Type I allergy models accompanied by a skin symptom (a dermatitis model) were produced, with TNP-IgE mice (CLEA Japan, Inc.). The mice are genetically modified BALB/c mice that constantly produce an IgE specific to hapten TNP (trinitrophenol) which is widely used as an allergen (antigen). It is possible to induce an allergic reaction in the mice, only by administering an allergen, without carrying out an immunization. […] An average value of thickening values of both ears was obtained as a value of an individual (provided that a previous value before the allergen application was 0 mm).
Ear swelling control ratio (%) was calculated by the following formula. Ear swelling control ratio (%)=(1−(Average value of ear thickening of compound administered group)/(Average value of ear thickening of vehicle administered group))×100

In data set [5] the test system is MRL/lpr mice. Description: Mouse systemic lupus erythematosus model. The conditions noted are these: at the doses used in the test. In kind it is in vivo. As to the method:
MRL/lpr mice (Japan SLC, Inc.) were used to evaluate drug efficacy in this test, since the mice are widely used as mice models in which symptoms of autoimmune diseases similar to human systemic lupus erythematosus spontaneously express. A grouping was carried out on the basis of swellings of lymph nodes in submaxilla and axilla at 14 weeks old, and once-daily oral administration was continued for 42 days from the day of grouping, with vehicle or Example Compound 13 suspension. Urea nitrogen concentration and anti-dsDNA antibody concentration in peripheral blood at the final administration day were measured.

Data set [6] has as its system mouse collagen-induced arthritis model. Description: Mouse collagen-induced arthritis model (therapeutic effect), Test Example 7. In kind it is in vivo. The conditions noted are these: once-a-day oral for 15 days from sixth day after additional immunization, FIG. 2. As to the method:
(§1) Seven-week-old male/DBA/1 mice (CHARLES RIVER LABORATORIES JAPAN, INC.) were intracutaneously injected in the dorsum with 100 μL/body of an equal amount-mixed solution (emulsion) of a 4 mg/mL bovine type 2 collagen solution (Collagen Research Center) and a complete freund's adjuvant (DIFCO Inc.) (Initial immunization). After 21 days therefrom, the mice were intracutaneously injected in the base of the tail with 100 μL/body of the equal amount-mixed solution (emulsion) of a 4 mg/mL of bovine type 2 collagen solution (Collagen Research Center) and a complete freund's adjuvant (DIFCO Inc.) to carry out an additional immunization. […] Symptoms of arthritis in day 0, day 4, day 7, day 11, and day 14 were scored with the naked eye (0: No change, 1: Swelling of a finger, 2: Swelling of two fingers or more, 3: Swelling of instep, 4: Swelling of all fingers besides swelling extending to wrist/ankle), and a total of four limbs was obtained as a point of an individual (maximum 16 points).

Data set [7] shares this test system. The data set is described as follows: Mouse collagen-induced arthritis model (therapeutic effect), Test Example 8. In kind it is in vivo. The following applies: therapeutic administration, FIG. 3. As to the method:
as §1

The mark [8] stands for this setting: Rattus norvegicus, RBL-2H3, RBL-2H3 cells.
The mark [9] stands for this setting: repeated administration for two weeks.

Each structure is given as a SMILES string. Read-outs that look alike come from different tables or passages of the source.

T1 sequence (Q06187 whole entry): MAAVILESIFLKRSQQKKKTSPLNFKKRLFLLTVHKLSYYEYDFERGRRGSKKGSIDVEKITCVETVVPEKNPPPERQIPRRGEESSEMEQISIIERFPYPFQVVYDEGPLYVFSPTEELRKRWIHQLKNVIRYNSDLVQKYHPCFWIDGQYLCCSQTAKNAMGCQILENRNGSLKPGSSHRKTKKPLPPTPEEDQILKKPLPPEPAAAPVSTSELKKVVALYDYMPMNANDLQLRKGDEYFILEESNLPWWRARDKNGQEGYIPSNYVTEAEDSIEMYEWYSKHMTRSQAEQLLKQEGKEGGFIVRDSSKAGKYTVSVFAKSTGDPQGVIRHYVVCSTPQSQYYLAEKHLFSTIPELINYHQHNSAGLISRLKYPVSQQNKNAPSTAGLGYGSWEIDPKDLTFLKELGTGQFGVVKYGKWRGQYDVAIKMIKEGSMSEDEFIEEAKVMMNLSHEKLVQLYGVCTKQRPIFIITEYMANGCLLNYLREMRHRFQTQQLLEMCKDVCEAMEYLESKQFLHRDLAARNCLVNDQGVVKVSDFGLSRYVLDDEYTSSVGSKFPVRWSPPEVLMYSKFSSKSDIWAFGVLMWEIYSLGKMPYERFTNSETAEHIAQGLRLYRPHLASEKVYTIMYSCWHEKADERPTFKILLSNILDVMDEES

Turning to `C=CC(=O)N1CCC[C@@H](n2nc(C(=O)Nc3nc4cc(F)ccc4o3)c3c(N)ncnc32)C1` [Example 12, (R)-1-(1-acryloylpiperidin-3-yl)-4-amino-N-(5-fluorobenzo[d]oxazol-2-yl)-1H-pyrazolo[3,4-d]pyrimidine-3-carboxamide], the results for the IC50 in data set [1] (setting [8]) and in data set [2] were 15 nM and 0.18 nM, respectively. Also, the “Relative body weight change ratio (%)” value in data set [3] was found to be 91.2%. Besides, the entries for the “Ear swelling control ratio (%)” value in data set [4] (1 mg/kg oral) and in data set [4] (3 mg/kg oral) were 64% and 80%, respectively. In data set [4] (from low dose, compared with Reference compound 1), the “ear swellings induced by the allergen application” value is “suppressed equivalently or strongly ear swellings”.

Consider `C=CC(=O)N1CCC[C@@H](n2nc(C(=O)Nc3nc4ccccc4o3)c3c(N)ncnc32)C1` [Example 13, (R)-1-(1-acryloylpiperidin-3-yl)-4-amino-N-(benzo[d]oxazol-2-yl)-1H-pyrazolo[3,4-d]pyrimidine-3-carboxamide], for which the IC50 in data set [1] (setting [8]) stood at 26 nM; in data set [2], 0.25 nM. For the same compound, the “Relative body weight change ratio (%)” value in data set [3] came out at 79.1%. Further, the “remarkable decrease in body weight” value in data set [5] is “not recognized”. Further, the “Ear swelling control ratio (%)” value in data set [4] (1 mg/kg oral) worked out at 54%; in data set [4] (3 mg/kg oral), 79%.

Turning to `C=CC(=O)N1CCC[C@@H](n2nc(-c3ccc(Oc4ccccc4)cc3)c3c(N)ncnc32)C1` [Reference compound 1, (R)-1-(3-(4-amino-3-(4-phenoxyphenyl)-1H-pyrazolo[3,4-d]pyrimidin-1-yl)piperidin-1-yl)prop-2-en-1-one, reference compound], the arthritis score entry in data set [6] and in data set [7] was “delayed the further increase of the increased arthritis score” throughout. In addition, the IC50 in data set [1] (RBL-2H3 cells) was 348 nM; in data set [1] (setting [8]), approximately 350 nM. For the same compound, in data set [3] (setting [9]), the loose bowel entry is recorded as “individuals suffering from loose bowel were recognized”. Also, the “rat body weight increase compared with the vehicle-administered group” value in data set [3] (setting [9]) is “very small”.

The values are drawn from patent US9782412B2, “Preventive and/or therapeutic agent of immune disease” (TAIHO PHARMACEUTICAL CO., LTD., priority 2015, dated 2017).
